Results from patent US20080009418A1, “Selective Inhibitors” (Alchemia LTD., priority 2004, published 2008).

Tests used:
Human melanocortin (MC5) = biological target: T1, Human melanocortin (MC5) (Homo sapiens, UniProt P33032); test: Radioligand binding, human melanocortin MC5 membranes, FlashPlate, [125I]-NDP-αMSH; details: compound at 10 μM, [125I]-NDP-αMSH; for A5: inhibition of radioligand binding: human MC5 membranes
T1 construct: purchased Perkin Elmer Biosignal
Procedure, shortened: (§1)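 Cloned human receptor membranes were coated onto FlashPlate wells and incubated with radioligand and compound (added from a 0.5 mM DMSO daughter plate) for 1 hour at room temperature in the dark. Scintillation counting gave percent inhibition, with DMSO defining total and reference ligand defining non-specific binding.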

[1] = biological target: T2, Human melanin-concentrating hormone (MCH1) (Homo sapiens, UniProt Q99705); test: Radioligand binding, human melanin-concentrating hormone MCH1 membranes, FlashPlate, [125I]-S36057; details: compound at 10 μM; for A6: inhibition of radioligand binding: [125I]-S36057, human MCH1 membranes
T2 construct: purchased Perkin Elmer Biosignal
Procedure, shortened: as §1

Human neurokinin (NK1) = biological target: T3, Human neurokinin (NK1) (Homo sapiens, UniProt P25103); test: Radioligand binding, human neurokinin NK1 membranes, filtration, [125I]-Substance P; details: compound at 10 μM, [125I]-Substance P; for A8: inhibition of radioligand binding: human NK1 membranes
T3 construct: purchased Perkin Elmer Biosignal
Procedure, shortened: (§2)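 Percent inhibition of radioligand binding measured on recombinant human membranes: NK1 with [125I]-Substance P, KOP with [3H]-Diprenorphine. Incubation 1 h at room temperature, then harvest onto 0.3% PEI-soaked filters, cold Tris-HCl pH 7.4 washes and scintillation counting; non-specific binding from reference ligand wells.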

Human δ-opioid (DOP) = biological target: T4, Human δ-opioid (DOP) (Homo sapiens, UniProt P41143); test: Radioligand binding, human δ-opioid (DOP) membranes, FlashPlate, [3H]-Bremazocine; details: compound at 10 μM, [3H]-Bremazocine; for A1: inhibition of radioligand binding: human DOP membranes
T4 construct: purchased Perkin Elmer Biosignal
Procedure, shortened: as §1

Human Melanocortin (MC4) = biological target: T5, Human Melanocortin (MC4) (Homo sapiens, UniProt P32245); test: Radioligand binding, human melanocortin MC4 membranes, FlashPlate, [125I]-NDP-αMSH; details: compound at 10 μM, [125I]-NDP-αMSH; for A4: inhibition of radioligand binding: human MC4 membranes
T5 construct: purchased Perkin Elmer Biosignal
Procedure, shortened: as §1

Human opioid (ORL1) = biological target: T6, Human opioid (ORL1) (Homo sapiens, UniProt P41146); test: Radioligand binding, human opioid ORL1 membranes, FlashPlate, [125I]-Nociceptin; details: compound at 10 μM, [125I]-Nociceptin; for A10: inhibition of radioligand binding: human ORL1 membranes
T6 construct: purchased Perkin Elmer Biosignal
Procedure, shortened: as §1

Human μ-opioid (MOP) = biological target: T7, Human μ-opioid (MOP) (Homo sapiens, UniProt P35372); test: Radioligand binding, human μ-opioid (MOP) membranes, FlashPlate, [3H]-Naloxone; details: compound at 10 μM, [3H]-Naloxone; for A7: inhibition of radioligand binding: human MOP membranes
T7 construct: purchased Perkin Elmer Biosignal
Procedure, shortened: as §1

Mouse urotensin (mUR2) = biological target: T8, Mouse urotensin (mUR2) (Mus musculus, UniProt Q8VIH9); test: Radioligand binding, mouse urotensin mUR2 membranes, FlashPlate, [125I]-Urotensin II; details: compound at 10 μM, [125I]-Urotensin II; for A11: inhibition of radioligand binding: mouse mUR2 membranes
T8 construct: purchased Perkin Elmer Biosignal
T8 sequence (Q8VIH9 1-385): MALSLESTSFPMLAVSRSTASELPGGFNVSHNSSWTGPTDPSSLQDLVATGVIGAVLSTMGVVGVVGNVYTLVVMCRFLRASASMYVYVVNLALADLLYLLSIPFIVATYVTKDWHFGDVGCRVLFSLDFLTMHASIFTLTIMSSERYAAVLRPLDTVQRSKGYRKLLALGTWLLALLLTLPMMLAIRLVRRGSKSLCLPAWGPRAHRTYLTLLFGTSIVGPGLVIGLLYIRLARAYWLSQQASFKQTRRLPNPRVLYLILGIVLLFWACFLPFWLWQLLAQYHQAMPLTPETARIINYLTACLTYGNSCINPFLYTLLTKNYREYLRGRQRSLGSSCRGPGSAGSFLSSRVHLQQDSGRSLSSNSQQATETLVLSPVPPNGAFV
Procedure, shortened: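 Cloned mouse urotensin (mUR2) receptor membranes from Perkin Elmer Biosignal were immobilized in FlashPlate microplates using a proprietary coating. Each well got 19.5 μl buffer, then 0.5 μl of DMSO, reference ligand, or compound. Adding 5 μl of [125I]-Urotensin II, diluted to 5× final concentration in binding buffer, started binding. Plates were sealed with TopSeal-A and incubated 1 hour at room temperature in the dark. Wells were counted for 30 seconds each on a TopCount after a 60-second delay, and percentage inhibition was calculated.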

[2] = biological target: T9, Human neuropeptide Y (NPY-Y1) (Homo sapiens, UniProt P25929); test: Radioligand binding, human neuropeptide Y NPY-Y1 membranes, FlashPlate, [125I]-PYY; details: compound at 10 μM, [125I]-PYY; for A9: inhibition of radioligand binding: human NPY-Y1 membranes
T9 construct: purchased Perkin Elmer Biosignal
T9 sequence (P25929 1-384): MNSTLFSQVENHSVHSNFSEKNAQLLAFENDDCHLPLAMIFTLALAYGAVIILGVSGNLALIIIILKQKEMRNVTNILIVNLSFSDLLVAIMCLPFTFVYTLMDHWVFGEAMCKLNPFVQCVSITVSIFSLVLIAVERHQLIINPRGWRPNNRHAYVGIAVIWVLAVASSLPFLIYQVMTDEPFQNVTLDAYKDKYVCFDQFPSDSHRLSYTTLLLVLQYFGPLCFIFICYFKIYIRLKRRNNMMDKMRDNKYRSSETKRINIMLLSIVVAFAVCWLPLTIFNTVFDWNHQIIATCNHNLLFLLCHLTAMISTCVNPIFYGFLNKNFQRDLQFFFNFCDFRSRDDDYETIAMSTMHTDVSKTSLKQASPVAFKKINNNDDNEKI
Procedure, shortened: as §1

Human Melanocortin (MC3) = biological target: T10, Human Melanocortin (MC3) (Homo sapiens, UniProt P41968); test: Radioligand binding, human melanocortin MC3 membranes, FlashPlate, [125I]-NDP-αMSH; details: compound at 10 μM, [125I]-NDP-αMSH; for A3: inhibition of radioligand binding: human MC3 membranes
T10 construct: purchased Perkin Elmer Biosignal
Procedure, shortened: as §1

Human κ-Opioid (KOP) = biological target: T11, Human κ-Opioid (KOP) (Homo sapiens, UniProt P41145); test: Radioligand binding, human κ-opioid (KOP) membranes, filtration, [3H]-Diprenorphine; details: compound at 10 μM, [3H]-Diprenorphine; for A2: inhibition of radioligand binding: human KOP membranes
T11 construct: purchased Perkin Elmer Biosignal
Procedure, shortened: as §2

T2 sequence (Q99705 whole entry): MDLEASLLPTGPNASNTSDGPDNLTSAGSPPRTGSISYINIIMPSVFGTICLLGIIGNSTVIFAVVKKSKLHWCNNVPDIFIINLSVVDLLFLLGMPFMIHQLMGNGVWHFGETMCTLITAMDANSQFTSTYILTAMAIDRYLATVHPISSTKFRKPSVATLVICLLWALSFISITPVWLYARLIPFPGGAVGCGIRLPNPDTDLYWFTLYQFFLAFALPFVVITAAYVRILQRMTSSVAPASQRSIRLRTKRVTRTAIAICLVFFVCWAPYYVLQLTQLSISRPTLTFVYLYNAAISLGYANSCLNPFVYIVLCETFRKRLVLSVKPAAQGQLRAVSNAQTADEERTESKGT
T4 sequence (P41143 whole entry): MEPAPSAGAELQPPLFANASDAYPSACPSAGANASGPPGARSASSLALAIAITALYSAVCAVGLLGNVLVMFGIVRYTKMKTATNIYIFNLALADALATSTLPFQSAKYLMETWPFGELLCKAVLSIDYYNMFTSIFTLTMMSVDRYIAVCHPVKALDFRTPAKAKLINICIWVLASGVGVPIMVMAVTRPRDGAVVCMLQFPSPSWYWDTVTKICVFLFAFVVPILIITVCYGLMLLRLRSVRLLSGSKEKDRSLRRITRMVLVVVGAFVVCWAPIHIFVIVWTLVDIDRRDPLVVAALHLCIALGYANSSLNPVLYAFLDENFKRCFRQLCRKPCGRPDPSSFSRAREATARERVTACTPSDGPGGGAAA
T5 sequence (P32245 whole entry): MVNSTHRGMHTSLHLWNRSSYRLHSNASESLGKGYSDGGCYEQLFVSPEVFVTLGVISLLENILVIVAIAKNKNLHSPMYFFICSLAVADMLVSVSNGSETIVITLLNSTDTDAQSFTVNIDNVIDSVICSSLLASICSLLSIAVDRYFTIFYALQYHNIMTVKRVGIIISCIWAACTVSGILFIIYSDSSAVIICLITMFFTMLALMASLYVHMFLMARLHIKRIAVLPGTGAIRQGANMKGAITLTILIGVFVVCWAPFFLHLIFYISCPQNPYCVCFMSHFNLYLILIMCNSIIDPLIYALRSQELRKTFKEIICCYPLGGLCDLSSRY
T11 sequence (P41145 whole entry): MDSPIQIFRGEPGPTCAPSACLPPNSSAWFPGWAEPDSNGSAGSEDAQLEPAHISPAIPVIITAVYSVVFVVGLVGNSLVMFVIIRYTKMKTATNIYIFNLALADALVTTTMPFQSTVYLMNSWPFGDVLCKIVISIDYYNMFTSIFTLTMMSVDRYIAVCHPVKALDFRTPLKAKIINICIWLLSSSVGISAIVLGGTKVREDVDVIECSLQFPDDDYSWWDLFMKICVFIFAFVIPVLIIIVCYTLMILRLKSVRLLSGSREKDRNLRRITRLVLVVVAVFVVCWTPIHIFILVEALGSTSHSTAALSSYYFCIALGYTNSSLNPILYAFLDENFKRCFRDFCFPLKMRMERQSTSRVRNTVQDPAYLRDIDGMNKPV
T7 sequence (P35372 whole entry): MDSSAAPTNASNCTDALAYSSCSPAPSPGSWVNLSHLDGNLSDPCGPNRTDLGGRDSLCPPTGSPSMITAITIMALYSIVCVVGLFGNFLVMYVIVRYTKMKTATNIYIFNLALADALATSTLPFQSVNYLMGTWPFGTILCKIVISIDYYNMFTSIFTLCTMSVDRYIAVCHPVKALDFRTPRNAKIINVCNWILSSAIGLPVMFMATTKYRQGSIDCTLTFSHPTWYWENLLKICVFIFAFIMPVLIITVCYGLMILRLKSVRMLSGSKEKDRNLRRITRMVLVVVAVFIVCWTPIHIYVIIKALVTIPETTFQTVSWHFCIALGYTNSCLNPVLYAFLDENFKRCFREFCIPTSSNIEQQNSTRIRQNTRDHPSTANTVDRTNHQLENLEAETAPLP
T10 sequence (P41968 whole entry): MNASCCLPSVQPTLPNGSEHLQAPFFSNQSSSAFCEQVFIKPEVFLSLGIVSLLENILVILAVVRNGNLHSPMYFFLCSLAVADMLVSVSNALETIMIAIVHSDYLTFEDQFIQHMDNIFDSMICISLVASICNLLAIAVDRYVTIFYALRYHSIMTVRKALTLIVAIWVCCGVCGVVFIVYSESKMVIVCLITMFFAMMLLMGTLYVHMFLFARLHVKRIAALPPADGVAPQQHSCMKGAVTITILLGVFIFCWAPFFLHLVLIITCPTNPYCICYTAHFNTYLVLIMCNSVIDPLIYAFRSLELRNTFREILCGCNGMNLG
T3 sequence (P25103 whole entry): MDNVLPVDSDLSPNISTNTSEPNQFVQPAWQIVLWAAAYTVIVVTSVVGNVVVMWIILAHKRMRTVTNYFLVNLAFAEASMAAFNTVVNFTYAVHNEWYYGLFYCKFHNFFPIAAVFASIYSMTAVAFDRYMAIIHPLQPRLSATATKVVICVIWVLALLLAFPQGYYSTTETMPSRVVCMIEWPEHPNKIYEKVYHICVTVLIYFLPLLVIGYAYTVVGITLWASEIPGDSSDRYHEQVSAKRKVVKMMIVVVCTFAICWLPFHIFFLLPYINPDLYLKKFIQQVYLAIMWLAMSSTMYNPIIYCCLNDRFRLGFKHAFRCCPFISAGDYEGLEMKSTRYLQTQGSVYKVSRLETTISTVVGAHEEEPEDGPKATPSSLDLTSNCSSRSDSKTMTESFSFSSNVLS
T6 sequence (P41146 whole entry): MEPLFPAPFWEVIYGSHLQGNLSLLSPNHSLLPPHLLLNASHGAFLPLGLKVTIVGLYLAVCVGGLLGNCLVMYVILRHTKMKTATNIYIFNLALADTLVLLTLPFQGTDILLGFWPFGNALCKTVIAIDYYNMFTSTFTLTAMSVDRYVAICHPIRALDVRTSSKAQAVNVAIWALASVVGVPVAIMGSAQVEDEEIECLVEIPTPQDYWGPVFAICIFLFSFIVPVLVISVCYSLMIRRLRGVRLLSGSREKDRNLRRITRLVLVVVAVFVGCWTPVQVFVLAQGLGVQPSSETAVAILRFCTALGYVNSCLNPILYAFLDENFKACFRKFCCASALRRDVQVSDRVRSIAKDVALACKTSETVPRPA
T1 sequence (P33032 whole entry): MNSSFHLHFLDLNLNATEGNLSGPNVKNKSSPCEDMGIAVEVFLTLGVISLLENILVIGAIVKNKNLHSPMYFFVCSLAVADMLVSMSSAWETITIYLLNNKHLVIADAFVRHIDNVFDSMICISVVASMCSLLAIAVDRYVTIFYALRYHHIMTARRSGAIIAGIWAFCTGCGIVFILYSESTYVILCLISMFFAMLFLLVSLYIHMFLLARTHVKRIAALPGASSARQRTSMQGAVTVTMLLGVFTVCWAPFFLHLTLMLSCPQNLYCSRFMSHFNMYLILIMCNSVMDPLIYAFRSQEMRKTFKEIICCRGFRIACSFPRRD

## CSC1OC(COCc2cccc(N)c2)C(O)C(OCc2ccc(Cl)cc2)C1NC(=O)c1c[nH]c2ccccc12 (stereo not drawn) [compound 334]
Human melanocortin (MC5)
  A5: inhibition of radioligand binding, human melanocortin (MC5): − (“−” indicates less than 50% inhibition at 10 μM)
[1]; [125I]-S36057
  A6: inhibition of radioligand binding, human melanin-concentrating hormone (MCH1): − (“−” indicates less than 50% inhibition at 10 μM)
Human neurokinin (NK1)
  A8: inhibition of radioligand binding, human neurokinin (NK1): + (“+” indicates greater than 50% inhibition at 10 μM)
Human δ-opioid (DOP)
  A1: inhibition of radioligand binding, human δ-opioid (DOP): − (“−” indicates less than 50% inhibition at 10 μM)
Human Melanocortin (MC4)
  A4: inhibition of radioligand binding, human melanocortin (MC4): − (“−” indicates less than 50% inhibition at 10 μM)
Human opioid (ORL1)
  A10: inhibition of radioligand binding, human opioid (ORL1): − (“−” indicates less than 50% inhibition at 10 μM)
Human μ-opioid (MOP)
  A7: inhibition of radioligand binding, human μ-opioid (MOP): − (“−” indicates less than 50% inhibition at 10 μM)
Mouse urotensin (mUR2)
  A11: inhibition of radioligand binding, mouse urotensin (mUR2): − (“−” indicates less than 50% inhibition at 10 μM)
[2]
  A9: inhibition of radioligand binding, human neuropeptide Y (NPY-Y1): − (“−” indicates less than 50% inhibition at 10 μM)
Human Melanocortin (MC3)
  A3: inhibition of radioligand binding, human melanocortin (MC3): − (“−” indicates less than 50% inhibition at 10 μM)
Human κ-Opioid (KOP)
  A2: inhibition of radioligand binding, human κ-opioid (KOP): − (“−” indicates less than 50% inhibition at 10 μM)

## NCCCC(=O)NC1C(OCc2ccc3ccccc3c2)OC(COCc2ccc(Cl)cc2)C(O)C1OCc1ccc2ccccc2c1 (stereo not drawn) [compound 395]
Human melanocortin (MC5)
  A5: inhibition of radioligand binding: + (“+” indicates greater than 50% inhibition at 10 μM)
[1]; 10 µM
  A6: inhibition of radioligand binding: − (“−” indicates less than 50% inhibition at 10 μM)
Human neurokinin (NK1)
  A8: inhibition of radioligand binding: + (“+” indicates greater than 50% inhibition at 10 μM)
Human δ-opioid (DOP)
  A1: inhibition of radioligand binding: − (“−” indicates less than 50% inhibition at 10 μM)
Human Melanocortin (MC4)
  A4: inhibition of radioligand binding: + (“+” indicates greater than 50% inhibition at 10 μM)
Human opioid (ORL1); 10 µM
  A10: inhibition of radioligand binding: + (“+” indicates greater than 50% inhibition at 10 μM)
Human μ-opioid (MOP)
  A7: inhibition of radioligand binding: − (“−” indicates less than 50% inhibition at 10 μM)
Mouse urotensin (mUR2)
  A11: inhibition of radioligand binding: − (“−” indicates less than 50% inhibition at 10 μM)
[2]
  A9: inhibition of radioligand binding: − (“−” indicates less than 50% inhibition at 10 μM)
Human Melanocortin (MC3)
  A3: inhibition of radioligand binding: + (“+” indicates greater than 50% inhibition at 10 μM)
Human κ-Opioid (KOP); 10 µM
  A2: inhibition of radioligand binding: − (“−” indicates less than 50% inhibition at 10 μM)

## N=C(N)NCC(=O)NC1C(OCc2ccc(Cl)cc2)OC(COCc2ccccc2)C(O)C1OCc1ccc(-c2ccccc2)cc1 (stereo not drawn) [compound 424]
Human melanocortin (MC5)
  A5: inhibition of radioligand binding: + (“+” indicates greater than 50% inhibition at 10 μM)
[1]
  A6: inhibition of radioligand binding: − (“−” indicates less than 50% inhibition at 10 μM)
Human neurokinin (NK1)
  A8: inhibition of radioligand binding: + (“+” indicates greater than 50% inhibition at 10 μM)
Human δ-opioid (DOP)
  A1: inhibition of radioligand binding: − (“−” indicates less than 50% inhibition at 10 μM)
Human Melanocortin (MC4)
  A4: inhibition of radioligand binding: + (“+” indicates greater than 50% inhibition at 10 μM)
Human opioid (ORL1)
  A10: inhibition of radioligand binding: − (“−” indicates less than 50% inhibition at 10 μM)
Human μ-opioid (MOP)
  A7: inhibition of radioligand binding: − (“−” indicates less than 50% inhibition at 10 μM)
Mouse urotensin (mUR2)
  A11: inhibition of radioligand binding: − (“−” indicates less than 50% inhibition at 10 μM)
[2]
  A9: inhibition of radioligand binding: − (“−” indicates less than 50% inhibition at 10 μM)
Human Melanocortin (MC3)
  A3: inhibition of radioligand binding: + (“+” indicates greater than 50% inhibition at 10 μM)
Human κ-Opioid (KOP)
  A2: inhibition of radioligand binding: − (“−” indicates less than 50% inhibition at 10 μM)
